Measured values published in patent publication US20110151033A1, “ORTHOSIPHON STAMINEUS EXTRACTS FOR USE AS A COGNITION ENHANCER” (BIOTROPICS MALAYSIA BHD, priority 2009, published 2011).

Experiments:
ADORA2A = target: T1, ADORA2A (Homo sapiens, UniProt P29274); assay: ADORA2A in vitro receptor assay, [3H]CGS-21680 radioligand binding; conditions: human recombinant HEK-293 cells, 0.05 μM [3H] CGS-21680
T1 construct: host or cells: HEK-293
Method: The methods employed in this study have been adapted from the scientific literature (Varani K, Gessi S, Dalpiaz A, Borea P A (1996) Br. J. Pharmacol. 117, 1693 Pharmacological and biochemical characterization of purified A2A adenosine receptors in human platelet membranes by [3H]CGS-21680 binding) to maximize reliability and reproducibility. Reference standards are run as an integral part of each assay to ensure the validity of the results obtained. Assays are performed under conditions described below. (assay number 200610, Ricerca Biosciences, LLC, Taipei, Taiwan). • Source: Human recombinant HEK-293 cells • Ligand: 0.05 μM [3H]

mature adult rat = assay: Social Recognition Test (SRT), in vivo; conditions: 3 mg/kg, same administration regime
Method: The method, which detects memory enhancing activity, follows that described by Lemaire et al. (Psychopharmacology, 115, 435-440, 1994). An unfamiliar juvenile rat was introduced into the individual home cage of a mature adult rat for 5 minutes. Following this first contact (C1), the juvenile was returned to its isolation cage, until a second contact of 5 minutes with the same mature adult rat (C2), 120 minutes later was allowed.
The time the adult rat spended investigating (sniffing, grooming, licking, closely following) the juvenile at each contact was recorded. A recognition index (=C2/C1) was calculated. Under such conditions, a mature adult rat fails to recognize the juvenile as familiar, as indicated by an absence of reduction in the duration of social investigatory behaviour at C2.
12 rats were studied per group (in total 3 groups, vehicle, test compound, positive control). The test was performed blind. The test compound (e.g. the extract according example 3) was evaluated at a dose of 1 g/kg administered p.o. immediately after Cl (i.e. 120 minutes before C2), and compared with a vehicle control group. The test substance was dispersed in 4% Cremophor El, (polyoxyethylated castor oil, BASF, Ludwigshafen, Germany) in physiological saline which served as the vehicle. […] Data were analyzed by comparing treated groups with appropriate control using unpaired Student's t tests. […]

T1 sequence (P29274 whole entry): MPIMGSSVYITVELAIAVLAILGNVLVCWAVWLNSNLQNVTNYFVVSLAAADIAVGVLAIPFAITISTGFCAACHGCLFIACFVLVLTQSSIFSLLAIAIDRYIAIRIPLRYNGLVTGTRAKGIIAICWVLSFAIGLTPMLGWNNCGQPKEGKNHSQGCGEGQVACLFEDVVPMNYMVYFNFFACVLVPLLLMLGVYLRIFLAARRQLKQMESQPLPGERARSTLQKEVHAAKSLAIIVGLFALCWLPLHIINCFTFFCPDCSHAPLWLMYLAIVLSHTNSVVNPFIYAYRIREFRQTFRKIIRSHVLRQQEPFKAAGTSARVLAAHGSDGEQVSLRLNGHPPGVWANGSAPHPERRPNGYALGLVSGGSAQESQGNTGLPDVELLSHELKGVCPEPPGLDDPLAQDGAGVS

Row | inhibition at 10 µM (ADORA2A) | Structure (SMILES) | effect of the positive control (presumably on the Recognition Index) (mature adult rat)
1 | 42% | C=C[C@@]1(C)CC(=O)[C@H]2[C@](O)(C1=O)[C@H](OC(C)=O)C[C@H]1C(C)(C)[C@H](OC(=O)c3ccccc3)[C@H](OC(C)=O)[C@H](OC(=O)c3ccccc3)[C@@]12C [[6], Orthosiphonone A] | 
2 | 64% | C=CC1C(OC(=O)c2ccccc2)C2C(O)(C(=O)C1(C)O)C(OC(C)=O)CC1C(C)(C)C(O)C(OC(C)=O)C(OC(=O)c3ccccc3)C12C (stereo not drawn) [[7], Neoorthosiphol A] | 
3 | 42% | C=CC1C(OC(=O)c2ccccc2)C2C(O)(C(=O)C1(C)O)C(OC(C)=O)CC1C(C)(C)C(OC(C)=O)C(OC(C)=O)C(OC(=O)c3ccccc3)C12C (stereo not drawn) [[8], Staminol A] | 
4 | 42% | C=C[C@@]1(C)C[C@@H](OC(=O)c2ccccc2)[C@H]2[C@](O)(C1=O)[C@H](OC(C)=O)C[C@H]1C(C)(C)[C@H](O)[C@H](OC(C)=O)[C@H](OC(=O)c3ccccc3)[C@@]12C [[4], Orthosiphol A] | 
5 | 52% | C=C[C@@]1(C)C[C@@H](OC(=O)c2ccccc2)[C@@H]2[C@@]3(C)C=C(OC(C)=O)C(=O)C(C)(C)[C@@H]3C[C@@H](OC(C)=O)[C@@]2(O)C1=O [[5], Orthosiphol D] | 
6 |  | COc1cc2c(cc1OC)C(=O)C(CC1CCN(Cc3ccccc3)CC1)C2 (stereo not drawn) [Donepezil] | −28%
